# Values quoted from earlier work in patent US20110269740A1, “JAK KINASE MODULATING COMPOUNDS AND METHODS OF USE THEREOF” (Ambit Biosciences Corporation, priority 2008, published 2011).
# Read-outs that look alike come from different tables or passages of the source.
# How the values were obtained:
# [1] = system: prostate cancer cell DU145
# [2] = system: CML cell lines such as 32Dp210 and K562, as well as mouse Bcr-Abl+32D cells; settings: CML cell lines 32Dp210, K562, mouse Bcr-Abl+32D
# [3] = system: BCR-Abl+BaF3 cells which carried the Abl T315I mutation; settings: imatinib-resistant
# transplant rejection [4] = settings: murine heterotopic heart transplant model, orally available
# transplant rejection [5] = settings: non-human primate renal transplant model, orally available
Structure (SMILES),apoptosis [1],downstream effect on c-Myc [2],apoptosis [3],prevention of transplant rejection (transplant rejection [4]),prevention of transplant rejection (transplant rejection [5])
N#C/C(=C/c1ccc(O)c(O)c1)C(=O)NCc1ccccc1 [AG490],induced apoptosis,reduction of c-Myc,induce apoptosis,,
C[C@@H]1CCN(C(=O)CC#N)C[C@@H]1N(C)c1ncnc2[nH]ccc12 [CP-690550],,,,efficacy in preventing transplant rejection,efficacy in preventing transplant rejection
